Laboratory results as given in PMC3814675, “Structures of B-Lymphotropic Polyomavirus VP1 in Complex with Oligosaccharide Ligands” (PLoS Pathogens, 2013).

Tests used:
LPyV VP1 [1] = target: T1, LPyV VP1 (B-lymphotropic polyomavirus, UniProt P04010); test: X-ray crystal structure (soaked crystals), […] Å; assay type: binding; settings: 40 mM ligand soak 45 min, 0.1 M sodium acetate pH 4.8, 0.2 M CaCl2; outer-surface sialic acid cleft between two VP1 monomers; also bound on glycan array as lipid-linked probe
T1 construct: VP1 residues 28-301 (27 N-terminal and 66 C-terminal residues truncated), pET15b, E. coli BL21(DE3); His-tag cut with thrombin for crystals leaving GSHM (tag kept for glycan array); unassembled pentamer

LPyV VP1 [2] = target: T1, LPyV VP1; test: X-ray crystal structure (soaked crystals), […] Å; assay type: binding; settings: 40 mM ligand soak 10 min, 0.1 M sodium acetate pH 4.8, 0.2 M CaCl2; same cleft as 3SL; also bound on glycan array as lipid-linked probe
[3] = target: the molecule itself; test: crystal structure; unliganded LPyV VP1 and crystals soaked with 3SL or 3SLN; vapor diffusion against isopropanol, 0.1 M sodium acetate pH 4.8, 0.2 M calcium chloride; two VP1 pentamers in the asymmetric unit

T1 sequence (P04010 29-302): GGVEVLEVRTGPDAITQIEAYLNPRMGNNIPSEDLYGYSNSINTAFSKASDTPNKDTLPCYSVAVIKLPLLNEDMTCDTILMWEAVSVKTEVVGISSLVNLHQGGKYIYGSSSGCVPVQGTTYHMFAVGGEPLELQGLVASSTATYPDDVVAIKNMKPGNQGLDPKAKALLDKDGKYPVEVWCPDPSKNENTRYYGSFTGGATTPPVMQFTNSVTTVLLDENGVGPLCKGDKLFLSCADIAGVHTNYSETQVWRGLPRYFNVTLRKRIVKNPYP

CC(=O)N[C@H]1[C@H]([C@H](O)[C@H](O)CO)O[C@@](O[C@H]2[C@@H](O)[C@@H](CO)O[C@@H](O[C@H]3[C@H](O)[C@@H](O)C(O)O[C@@H]3CO)[C@@H]2O)(C(=O)O)C[C@@H]1O (stereo partly drawn) [3SL, Neu5Ac-α2,3-Gal-β1,4-Glc]
X-ray crystal structure (soaked crystals), 1.48 Å (LPyV VP1 [1]): entry codes 4MBX (unliganded LPyV VP1), 4MBY (complex with 3SL) and 4MBZ (complex with 3SLN)

CC(=O)N[C@H]1[C@H]([C@H](O)[C@H](O)CO)O[C@@](O[C@H]2[C@@H](O)[C@@H](CO)O[C@@H](O[C@H]3[C@H](O)[C@@H](NC(C)=O)C(O)O[C@@H]3CO)[C@@H]2O)(C(=O)O)C[C@@H]1O (stereo partly drawn) [3SLN, Neu5Ac-α2,3-Gal-β1,4-GlcNAc]
X-ray crystal structure (soaked crystals), 1.75 Å (LPyV VP1 [2]): 4MBY (complex with 3SL) and 4MBZ (complex with 3SLN)

B1: B-Lymphotropic Polyomavirus (LPyV) VP1 pentamer, amino acids 28-301 (domain or fragment)
chain: GSHMKGGVEVLEVRTGPDAITQIEAYLNPRMGNNIPSEDLYGYSNSINTAFSKASDTPNKDTLPCYSVAVIKLPLLNEDMTCDTILMWEAVSVKTEVVGISSLVNLHQGGKYIYGSSSGCVPVQGTTYHMFAVGGEPLELQGLVASSTATYPDDVVAIKNMKPGNQGLDPKAKALLDKDGKYPVEVWCPDPSKNENTRYYGSFTGGATTPPVMQFTNSVTTVLLDENGVGPLCKGDKLFLSCADIAGVHTNYSETQVWRGLPRYFNVTLRKRIVKNPY
notes: non-native amino acids left at the N-terminus after thrombin cleavage of the His-tag; Major capsid protein VP1 of B-Lymphotropic Polyomavirus, K38 strain, amino acids 28-301 (truncations of 27 and 66 residues at the N- and C-termini); Cannot assemble into capsids because of the truncations; The form used for crystals had the His-tag cleaved; the glycan array used the His-tagged form (no …)
stoichiometry N [3]: 5
